Tests used:
[1] = Study on the hygroscopicity (dynamic vapor sorption); type: physicochemical; conditions: 25° C. and 80% RH
Description: Model of instrument: SMSDVS Advantage dynamic vapor sorption analyzer
Test conditions: A sample (10 to 15 mg) was placed in a DVS sample pan for testing.
DVS parameters: • Temperature: 25° C. • Balance: dm/dt=0.01%/min (minimum: 10 min, maximum: 180 min) • Drying: drying for 120 min at 0% RH • Test gradient of RH (%): 10% • Test gradient range of RH (%): 0%-90%-0%

[2] = system: human breast cancer MCF-7 subcutaneous xenograft tumor; type: in vivo; conditions: 18.75 mg/kg PO QD × 3W
From the text: Cell line-derived xenograft (CDX) BALB/c nude mice that were female, 6- to 8-week old, weighed 20 g, and subcutaneously implanted with human tumor cell line derived from MCF-7 breast cancer patients were used. A total of 150 mice were needed, which were purchased from Beijing Vital River Laboratory Animal Technology Co., Ltd.
BALB/c nude mice that were female, 6- to 8-week old, and weighed approximately 20 g were used. The mice were maintained in separate ventilated cages (10 mice per cage) in a special pathogen-free environment. All the cages, bedding and water were disinfected prior to use. All the animals were free to access a standard certified commercial laboratory diet. A total of 150 mice were purchased from Beijing Vital River Laboratory Animal Technology Co., Ltd. for research. Each mouse was implanted subcutaneously with an estrogen tablets (0.18 mg/tablet, 60-day sustained release) in the left back. After 3 days, each mouse was implanted with tumor cells (10×10^6 in 0.2 mL of phosphate buffer) subcutaneously in the right back for tumor growth. Administration was started when the average tumor volume reached about 150 to 200 mm^3. The test compounds were orally administered daily, and the administration dosages were as shown in the above table. The tumor volumes were measured twice a week using a two-dimensional caliper. The volumes were expressed in cubic millimeters and calculated by the following formula: V=0.5 a×b^2, wherein a and b were the long diameter and short diameter of a tumor, respectively. The anti-tumor efficacy was determined by dividing the average increase of the tumor volumes of the animals treated with a compound by the average increase of the tumor volumes of the animals without being treated with the compound.

CC(C)c1c2cc(-c3nc(Nc4ccc(N5CCNCC5)cn4)ncc3F)ccc2nn1C.O=C(O)/C=C\C(=O)O [A crystal form of compound WX_1]
hygroscopic weight gain [1]: 1.48%
Tumor volume Day 0 ([2]; Day 0): 153 mm^3
Tumor volume Day 7 ([2]; Day 7): 156 mm^3
Tumor volume Day 14 ([2]; Day 14): 136 mm^3
Tumor volume Day 20 ([2]; Day 20): 98 mm^3
